# Test system: SEM cells
# Test: cell viability relative to DMSO control; higher = less cytotoxic
# Conditions: 48 h
# Procedure, shortened: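 Three leukemia lines were tested: NOMO1 and SEM at 500 cells/well and P12-Ichikawa at 1000 cells/well. Each was adapted for at least four passages in each medium and seeded in 5 μl in 1536-well plates, and library compounds in DMSO were pin-dosed from 47 μM to 0.79 nM in 11 threefold steps. After 48 h at 37°C, CellTiter-Glo One luminescence was read. Viability is a percentage relative to DMSO wells on each plate, with cell-free wells as background.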
# [1] = HPLM + 10% dialyzed FBS, 0.000781 µM
# [2] = HPLM + 10% dialyzed FBS, 0.00234 µM
# [3] = HPLM + 10% dialyzed FBS, 0.00702 µM
# [4] = HPLM + 10% dialyzed FBS, 0.0211 µM
# [5] = HPLM + 10% dialyzed FBS, 0.0632 µM
# [6] = HPLM + 10% dialyzed FBS, 0.19 µM
# [7] = HPLM + 10% dialyzed FBS, 0.569 µM
# [8] = HPLM + 10% dialyzed FBS, 1.71 µM
# [9] = HPLM + 10% dialyzed FBS, 5.12 µM
# [10] = HPLM + 10% dialyzed FBS, 15.4 µM
# [11] = HPLM + 10% dialyzed FBS, 46.1 µM
# [12] = RPMI 5 mM glucose + 10% FBS, 0.000781 µM
# [13] = RPMI 5 mM glucose + 10% FBS, 0.00234 µM
# [14] = RPMI 5 mM glucose + 10% FBS, 0.00702 µM
# [15] = RPMI 5 mM glucose + 10% FBS, 0.0211 µM
# [16] = RPMI 5 mM glucose + 10% FBS, 0.0632 µM
# [17] = RPMI 5 mM glucose + 10% FBS, 0.19 µM
# [18] = RPMI 5 mM glucose + 10% FBS, 0.569 µM
# [19] = RPMI 5 mM glucose + 10% FBS, 1.71 µM
# [20] = RPMI 5 mM glucose + 10% FBS, 5.12 µM
# [21] = RPMI 5 mM glucose + 10% FBS, 15.4 µM
# [22] = RPMI 5 mM glucose + 10% FBS, 46.1 µM
# [23] = RPMI 5 mM glucose + 10% dialyzed FBS, 0.000781 µM
# [24] = RPMI 5 mM glucose + 10% dialyzed FBS, 0.00234 µM
# [25] = RPMI 5 mM glucose + 10% dialyzed FBS, 0.00702 µM
# [26] = RPMI 5 mM glucose + 10% dialyzed FBS, 0.0211 µM
# [27] = RPMI 5 mM glucose + 10% dialyzed FBS, 0.0632 µM
# [28] = RPMI 5 mM glucose + 10% dialyzed FBS, 0.19 µM
# [29] = RPMI 5 mM glucose + 10% dialyzed FBS, 0.569 µM
# [30] = RPMI 5 mM glucose + 10% dialyzed FBS, 1.71 µM
# [31] = RPMI 5 mM glucose + 10% dialyzed FBS, 5.12 µM
# [32] = RPMI 5 mM glucose + 10% dialyzed FBS, 15.4 µM
# [33] = RPMI 5 mM glucose + 10% dialyzed FBS, 46.1 µM
SMILES,cell viability [1],cell viability [2],cell viability [3],cell viability [4],cell viability [5],cell viability [6],cell viability [7],cell viability [8],cell viability [9],cell viability [10],cell viability [11],cell viability [12],cell viability [13],cell viability [14],cell viability [15],cell viability [16],cell viability [17],cell viability [18],cell viability [19],cell viability [20],cell viability [21],cell viability [22],cell viability [23],cell viability [24],cell viability [25],cell viability [26],cell viability [27],cell viability [28],cell viability [29],cell viability [30],cell viability [31],cell viability [32],cell viability [33]
O=C(CCCCCCC(=O)Nc1cccnc1)NO,78.3%,106%,96.7%,97.2%,114%,104%,108%,88.5%,76.8%,17.6%,6.38%,101%,105%,102%,106%,101%,115%,97.5%,77.2%,81.7%,11.9%,5.78%,87.8%,93.6%,89.2%,101%,95.5%,99%,105%,81.9%,64%,13.5%,6.39%
CCN1\C=C(\C(O)=O)C(=O)C2=C1N=C(N3CCNCC3)C(=C2)F,58.6%,79.7%,68.2%,87.3%,84.8%,92.3%,84.8%,88.5%,84.2%,81%,68%,77.9%,102%,72%,82%,92.5%,84.5%,92.8%,81.9%,86%,89.6%,77.4%,74.9%,86.8%,71.2%,90.4%,78.1%,84%,90.5%,93.9%,81.5%,103%,87.8%
CCN(CCO)CCCOc1ccc2c(Nc3cc(CC(=O)Nc4cccc(F)c4)[nH]n3)ncnc2c1,118%,103%,110%,119%,105%,82.5%,40.6%,32.3%,34.8%,20.6%,15.9%,114%,94.6%,118%,102%,119%,76.4%,22.4%,19.7%,21.9%,12.2%,5.9%,100%,113%,108%,109%,104%,73.8%,25.5%,22.2%,25%,13.1%,4.04%
CCN1C[C@H](C)[N]2C(=C(O)C3=C2\C(=N/N(CC4=CC=C(F)C(=C4)Cl)C3=O)C(=O)NC)C1=O,104%,103%,105%,107%,106%,102%,109%,50.4%,98.5%,100%,94%,115%,115%,117%,103%,110%,106%,105%,18%,100%,103%,98.9%,101%,121%,125%,117%,125%,121%,122%,51.6%,115%,112%,105%
O=C(CCCCCCC(=O)Nc1ccc([C@H]2O[C@@H](CSc3nc(-c4ccccc4)c(-c4ccccc4)o3)C[C@@H](c3ccc(CO)cc3)O2)cc1)NO,,,,,,,,,,,,109%,124%,128%,134%,121%,112%,115%,114%,87.4%,8.6%,7.11%,113%,117%,135%,135%,124%,133%,130%,116%,77.6%,9.58%,7.49%
CCCC(C)(COC(N)=O)COC(=O)NC(C)C (stereo not drawn),87.5%,95.9%,117%,111%,139%,120%,120%,131%,126%,123%,130%,97.3%,113%,140%,138%,127%,148%,147%,163%,134%,149%,160%,88%,121%,144%,150%,138%,128%,156%,143%,139%,164%,153%
CC[S+](=O)([O-])Nc1ccc2c(c1)/C(=C(/Nc1ccc(CN3CCCCC3)cc1)c1ccccc1)C(=O)N2,117%,112%,108%,95.5%,71.3%,27.8%,23.9%,19.4%,18.5%,5.02%,3.36%,110%,108%,111%,108%,89.1%,17.9%,18.1%,13.8%,10%,3.47%,2.27%,118%,110%,126%,103%,89.7%,18.5%,16.3%,13.6%,11.5%,6.15%,2.34%
CCc1cc(C(N)=S)ccn1,80.7%,81.5%,88%,86.3%,91.5%,92.3%,90.8%,89.8%,91.2%,54.7%,84.7%,112%,103%,98.1%,108%,104%,107%,102%,97.8%,88.4%,36.1%,68.7%,94.9%,99.1%,89.8%,106%,101%,116%,102%,94.5%,100%,53.9%,64.2%
C=C1C(=O)[C@@]23C(CC[C@@H]1[C@H]2O)[C@@]12CO[C@]3(O)[C@@H](O)[C@@H]1C(C)(C)CC[C@@H]2O (stereo partly drawn),102%,96.9%,109%,113%,119%,103%,98.5%,103%,70%,20.5%,3.53%,106%,86.9%,107%,101%,104%,102%,86.7%,67.7%,37%,4.45%,2.3%,105%,7.74%,99.2%,109%,113%,107%,92%,97.3%,49.3%,9.6%,2.85%
C[C@H](CCC(=O)O)[C@H]1CCC2C3C[C@H](O)[C@@H]4C[C@H](O)CC[C@]4(C)C3CC[C@@]21C (stereo partly drawn),,,,,,,,,,,,109%,122%,129%,131%,135%,102%,103%,117%,123%,107%,108%,,,,,,,,,,,
CCC(C)N1\N=C/N(C1=O)C2=CC=C(C=C2)N3CCN(CC3)C4=CC=C(OC[C@H]5CO[C@@](C[N]6C=NC=N6)(O5)C7=CC=C(Cl)C=C7Cl)C=C4 (stereo partly drawn),94.1%,106%,119%,116%,119%,124%,105%,122%,120%,112%,107%,,,,,,,,,,,,78.4%,116%,115%,116%,113%,98.6%,109%,115%,115%,117%,105%
C[C@@H]1CCN(C(=O)CC#N)C[C@@H]1N(C)c1ncnc2[nH]ccc12,85%,92.5%,81.5%,85.7%,91%,77.4%,67.4%,80%,67%,73.1%,78.6%,96.6%,99.5%,79.5%,97.4%,103%,104%,99.3%,98.5%,80%,90.7%,95.3%,112%,104%,77.5%,109%,105%,92.4%,82.1%,94%,57.9%,83.5%,88.4%
CC1(CN2CCC(n3c(=O)[nH]c4ccccc43)CC2)OCc2ccccc2-n2cccc21 (stereo not drawn),102%,109%,111%,100%,103%,100%,107%,105%,106%,68.1%,76.9%,88.6%,90.5%,89%,111%,106%,95%,103%,100%,94.8%,79.3%,66.8%,106%,81.4%,97.6%,105%,113%,94%,121%,99.2%,105%,79.6%,96.9%
CCOC(=O)[C@@]1(CCCCCCOc2ccc(Cl)cc2)CO1,95.4%,103%,111%,112%,113%,95.9%,115%,94.3%,95.2%,51.3%,23.9%,114%,119%,126%,120%,125%,116%,115%,98.5%,102%,32.3%,12.6%,102%,107%,107%,106%,103%,107%,114%,102%,95%,50.4%,17%
C=C1C(=O)OC(CCCCCCCC)C1C(=O)O (stereo not drawn),97.2%,108%,106%,118%,108%,105%,111%,107%,90.6%,125%,113%,97.5%,99.9%,111%,106%,102%,119%,108%,113%,14.1%,125%,113%,111%,98.2%,111%,126%,120%,128%,125%,117%,84.3%,121%,121%
Cc1nn(C)c(COc2ccc(N3CCN([S+](=O)([O-])N(C)C)CC3)cc2)c1-c1cccc2c(CCCOc3cccc4ccccc34)c(C(=O)O)n(CCN3CCOCC3)c12,86%,82.9%,102%,99.8%,105%,100%,101%,118%,96.2%,112%,51.7%,,,,,,,,,,,,97.3%,106%,105%,106%,110%,91.4%,123%,114%,71%,117%,21.4%
